We go through 11 compounds from US11254705B2, “Cyclic peptide analogs and conjugates thereof” (Sirenas LLC, priority 2016, dated 2022).

For one test, the system named is HCC1954 cells. Kind of test: Inhibition of HCC1954 cell growth (method analogous to BT-474). The test is classed as cell-based. The following applies: Homo sapiens. As to the method: (§1) BT-474 human mammary gland ductal carcinoma cells were seeded in a clear polystyrene 96-well microculture plate (Corning® Costar® 96-well flat bottom plate, Cat. #3997) in a total volume of 90 μL/well. After 24 hours of incubation in a humidified incubator at 37° C. with 5% CO2 and 95% air, 10 μL of 10×, serially diluted test agents in growth medium were added to each well (10 pt dose response curve, highest concentration 10 μM of test agent). After 72 hours of culture in a humidified incubator at 37° C., in an atmosphere of 5% CO2 and 95% air, the plated cells and Cell Titer-Glo® (Protnega G7571) reagents were brought to room temperature to equilibrate for 30 minutes. 100 μL of Cell Titer-Glo® reagent was added to each well. The plate was shaken for two minutes and then left to equilibrate for ten minutes. The media/Cell Titer-Glo® reagent was transferred to a white polystyrene 96-well microculture plate (Corning® Costar® 96-well flat bottom plate, Cat. #3917) before reading luminescence on a Tecan GENios microplate reader.
(§2) Percent inhibition of cell growth was calculated relative to untreated control wells. The IC50 value for the test agents was determined using Prism 6.05 by curve-fitting of the data using the following four parameter-logistic equation:
[formula] where Top is the maximal % of control absorbance, Bottom is the minimal % of control absorbance at the highest agent concentration, Y is the % of control absorbance, X is the agent concentration, IC50 is the concentration of agent that inhibits cell growth by 50% compared to the control cells, and n is the slope of the curve.
Inhibitory response of test compounds against HCC1954 cells was determined using a method analogous to that used for BT-474 cells.

The subject of test [1] is BT-474 human mammary gland ductal carcinoma cells. Kind of test: Inhibition of BT-474 cell growth (Cell Titer-Glo, 72 h). The class given is cell-based. The following applies: BT-474 cells, 72 hours of culture, Cell Titer-Glo luminescence. How it is done: as §1, §2
[formula] where Top is the maximal % of control absorbance, Bottom is the minimal % of control absorbance at the highest agent concentration, Y is the % of control absorbance, X is the agent concentration, IC50 is the concentration of agent that inhibits cell growth by 50% compared to the control cells, and n is the slope of the curve. […]
(In general: In ATP-based viability assays light output follows the ATP content of the culture.)

Structures are written as SMILES.

Take `C/C=C(\C)[C@H]1OC(=O)[C@@H](C)NC(=O)[C@H]([C@H](C)CC)NC(=O)CN(C)C(=O)[C@@H](Cc2ccccc2)N(C)C(=O)[C@H](C)NC(=O)[C@@H](CC(C)C)OC(=O)/C(C)=C/C[C@H](OC(=O)NCCCO)[C@@H]1C` [Compound 1, (2R,5S,8R,14S,17R,20S,21S,22S,E)-8-benzyl-20-((E)-but-2-en-2-yl)-14-((R)-sec-butyl)-2-isobutyl-5,7,10,17,21,25-hexamethyl-3,6,9,12,15,18,26-heptaoxo-1,19-dioxa-4,7,10,13,16-pentaazacyclohexacos-24-en-22-yl (3-hydroxypropyl)carbamate]: the IC50 in the test on HCC1954 cells amounted to 0.457 nM; in test [1], 0.0811 nM.
For `C/C=C(\C)[C@H]1OC(=O)[C@@H](C)NC(=O)[C@H]([C@H](C)CC)NC(=O)CN(C)C(=O)[C@@H](Cc2ccccc2)N(C)C(=O)[C@H](C)NC(=O)[C@@H](CC(C)C)OC(=O)/C(C)=C/C[C@H](OC(=O)NCCCCO)[C@@H]1C` [Compound 2, (2R,5S,8R,14S,17R,20S,21S,22S,E)-8-benzyl-20-((E)-but-2-en-2-yl)-14-((R)-sec-butyl)-2-isobutyl-5,7,10,17,21,25-hexamethyl-3,6,9,12,15,18,26-heptaoxo-1,19-dioxa-4,7,10,13,16-pentaazacyclohexacos-24-en-22-yl (4-hydroxybutyl)carbamate], in that order: 4.95 nM and 3.75 nM.
On to `C/C=C(\C)[C@H]1OC(=O)[C@@H](C)NC(=O)[C@H]([C@H](C)CC)NC(=O)CN(C)C(=O)[C@@H](Cc2ccccc2)N(C)C(=O)[C@H](C)NC(=O)[C@@H](CC(C)C)OC(=O)/C(C)=C/C[C@H](OC(=O)NCCCCCO)[C@@H]1C` [Compound 3, (2R,5S,8R,14S,17R,20S,21S,22S,E)-8-benzyl-20-((E)-but-2-en-2-yl)-14-((R)-sec-butyl)-2-isobutyl-5,7,10,17,21,25-hexamethyl-3,6,9,12,15,18,26-heptaoxo-1,19-dioxa-4,7,10,13,16-pentaazacyclohexacos-24-en-22-yl (5-hydroxypentyl)carbamate], for which the IC50 was 1.41 nM in the test on HCC1954 cells and 0.0843 nM in test [1].
In the same order, the values of `C/C=C(\C)[C@H]1OC(=O)[C@@H](C)NC(=O)[C@H](C(C)CC)NC(=O)CN(C)C(=O)[C@@H](Cc2ccccc2)N(C)C(=O)[C@H](C)NC(=O)[C@@H](CC(C)C)OC(=O)/C(C)=C/C[C@H](OC(=O)NCCCCCCO)[C@@H]1C` (stereo partly drawn) [Compound 4, (2R,5S,8R,14S,17R,20S,21S,22S,E)-8-benzyl-20-((E)-but-2-en-2-yl)-14-((R)-sec-butyl)-2-isobutyl-5,7,10,17,21,25-hexamethyl-3,6,9,12,15,18,26-heptaoxo-1,19-dioxa-4,7,10,13,16-pentaazacyclohexacos-24-en-22-yl(6-hydroxyhexyl)carbamate] are 3.21 nM and 0.523 nM.
For `C/C=C(\C)[C@H]1OC(=O)[C@@H](C)NC(=O)[C@H](C(C)CC)NC(=O)CN(C)C(=O)[C@@H](Cc2ccccc2)N(C)C(=O)[C@H](C)NC(=O)[C@@H](CC(C)C)OC(=O)/C(C)=C/C[C@H](OC(=O)NCCCCCCCO)[C@@H]1C` (stereo partly drawn) [Compound 5, (2R,5S,8R,14S,17R,20S,21S,22S,E)-8-benzyl-20-((E)-but-2-en-2-yl)-14-((R)-sec-butyl)-2-isobutyl-5,7,10,17,21,25-hexamethyl-3,6,9,12,15,18,26-heptaoxo-1,19-dioxa-4,7,10,13,16-pentaazacyclohexacos-24-en-22-yl(7-hydroxyheptyl)carbamate], in that order: 1.11 nM and 0.329 nM.
`C/C=C(\C)[C@H]1OC(=O)[C@@H](C)NC(=O)[C@H]([C@H](C)CC)NC(=O)CN(C)C(=O)[C@@H](Cc2ccccc2)N(C)C(=O)[C@H](C)NC(=O)[C@@H](CC(C)C)OC(=O)/C(C)=C/C[C@H](OC(=O)NCCCCCCCCO)[C@@H]1C` [Compound 6, (2R,5S,8R,14S,17R,20S,21S,22S,E)-8-benzyl-20-((E)-but-2-en-2-yl)-14-((R)-sec-butyl)-2-isobutyl-5,7,10,17,21,25-hexamethyl-3,6,9,12,15,18,26-heptaoxo-1,19-dioxa-4,7,10,13,16-pentaazacyclohexacos-24-en-22-yl (8-hydroxyoctyl)carbamate]: the values for the half-inhibitory concentration (IC50) (in the test with HCC1954 cells; in test [1]) were 1.66 nM and 0.93 nM, respectively.
For `C/C=C(\C)[C@H]1OC(=O)[C@@H](C)NC(=O)[C@H]([C@H](C)CC)NC(=O)CN(C)C(=O)[C@@H](Cc2ccccc2)N(C)C(=O)[C@H](C)NC(=O)[C@@H](CC(C)C)OC(=O)/C(C)=C/C[C@H](OC(=O)N(C)CCCCCCNC)[C@@H]1C` [Compound 8, (2R,5S,8R,14S,17R,20S,21S,22S,E)-8-benzyl-20-((E)-but-2-en-2-yl)-14-((R)-sec-butyl)-2-isobutyl-5,7,10,17,21,25-hexamethyl-3,6,9,12,15,18,26-heptaoxo-1,19-dioxa-4,7,10,13,16-pentaazacyclohexacos-24-en-22-yl methyl(6-(methylamino)hexyl)carbamate], in that order: 31.9 nM and 8.66 nM.
With `C/C=C(\C)[C@H]1OC(=O)[C@@H](C)NC(=O)[C@H]([C@H](C)CC)NC(=O)CN(C)C(=O)[C@@H](Cc2ccccc2)N(C)C(=O)[C@H](C)NC(=O)[C@@H](CC(C)C)OC(=O)/C(C)=C/C[C@H](OC(=O)N2CCN(CCO)CC2)[C@@H]1C` [Compound 9, (2R,5S,8R,14S,17R,20S,21S,22S,E)-8-benzyl-20-((E)-but-2-en-2-yl)-14-((R)-sec-butyl)-2-isobutyl-5,7,10,17,21,25-hexamethyl-3,6,9,12,15,18,26-heptaoxo-1,19-dioxa-4,7,10,13,16-pentaazacyclohexacos-24-en-22-yl-4-(2-hydroxyethyl)piperazine-1-carboxylate], the values for the IC50 (with HCC1954 cells; in test [1]) were 0.25 nM and 0.15 nM, respectively.
For `C/C=C(\C)[C@H]1OC(=O)[C@@H](C)NC(=O)[C@H](C(C)CC)NC(=O)CN(C)C(=O)[C@@H](Cc2ccccc2)N(C)C(=O)[C@H](C)NC(=O)[C@@H](CC(C)C)OC(=O)/C(C)=C/C[C@H](OC(=O)NCCOCCO)[C@@H]1C` (stereo partly drawn) [Compound 11, (2R,5S,8R,14S,17R,20S,21S,22S,E)-8-benzyl-20-((E)-but-2-en-2-yl)-14-((R)-see-butyl)-2-isobutyl-5,7,10,17,21,25-hexamethyl-3,6,9,12,15,18,26-heptaoxo-1,19-dioxa-4,7,10,13,16-pentaazacyclohexacos-24-en-22-yl (2-(2-hydroxyethoxy)ethyl)carbamate], in that order: 1.64 nM and 1 nM.
Turning to `C/C=C(\C)[C@H]1OC(=O)[C@@H](C)NC(=O)[C@H]([C@H](C)CC)NC(=O)CN(C)C(=O)[C@@H](Cc2ccc(Cl)cc2)N(C)C(=O)[C@H](C)NC(=O)[C@@H](CC(C)C)OC(=O)/C(C)=C/C[C@H](O)[C@@H]1C` [Compound 15, (3R,6S,12R,15S,18R,24S,25S,26S,E)-26-((E)-but-2-en-2-yl)-6-((R)-sec-butyl)-12-(4-chlorobenzyl)-24-hydroxy-18-isobutyl-3,10,13,15,21,25-hexamethyl-1,19-dioxa-4,7,10,13,16-pentaazacyclohexacos-21-ene-2,5,8,11,14,17,20-heptaone], the results for the IC50 (in the test on HCC1954 cells; in test [1]) were 4.37 nM and 2.62 nM, respectively.
In the case of `C/C=C(\C)[C@H]1OC(=O)C(C)(C)NC(=O)[C@H]([C@H](C)CC)NC(=O)CN(C)C(=O)[C@@H](Cc2ccc(C#N)cc2)N(C)C(=O)[C@H](C)NC(=O)[C@@H](CC(C)C)OC(=O)/C(C)=C/C[C@H](OC(=O)NCCCCCO)[C@@H]1C` [Compound 29, (2R,5S,8R,14S,20S,21S,22S,E)-20-((E)-but-2-en-2-yl)-14-((R)-sec-butyl)-8-(4-cyanobenzyl)-2-isobutyl-5,7,10,17,17,21,25-heptamethyl-3,6,9,12,15,18,26-heptaoxo-1,19-dioxa-4,7,10,13,16-pentaazacyclohexacos-24-en-22-yl (5-hydroxypentyl)carbamate], in the test with HCC1954 cells, the IC50 came to 27.3 nM.

The IC50 is the point on the concentration scale where inhibition reaches its midpoint. A low value points to greater potency in that assay.
